# From patent US8658383B2, “Sweet taste receptor-expressing construct, cell body expressing the same, and utilization thereof” (T. Hasegawa Co., Ltd., priority 2009, dated 2014)
# How the values were obtained:
# [1] = molecular target: T1, human sweet taste receptor (hT1R2+hT1R3) (Homo sapiens, UniProt Q7RTX0+Q8TE23); experiment: Automated fluorescent calcium imaging (Fluo-4 AM, FlexStation 3) of cultured cell strain (A); type: cell-based; parameters: The sweet taste receptor subunits T1R2 and T1R3 include an entire part of each subunit
# T1 sequence (Q8TE23 20-839): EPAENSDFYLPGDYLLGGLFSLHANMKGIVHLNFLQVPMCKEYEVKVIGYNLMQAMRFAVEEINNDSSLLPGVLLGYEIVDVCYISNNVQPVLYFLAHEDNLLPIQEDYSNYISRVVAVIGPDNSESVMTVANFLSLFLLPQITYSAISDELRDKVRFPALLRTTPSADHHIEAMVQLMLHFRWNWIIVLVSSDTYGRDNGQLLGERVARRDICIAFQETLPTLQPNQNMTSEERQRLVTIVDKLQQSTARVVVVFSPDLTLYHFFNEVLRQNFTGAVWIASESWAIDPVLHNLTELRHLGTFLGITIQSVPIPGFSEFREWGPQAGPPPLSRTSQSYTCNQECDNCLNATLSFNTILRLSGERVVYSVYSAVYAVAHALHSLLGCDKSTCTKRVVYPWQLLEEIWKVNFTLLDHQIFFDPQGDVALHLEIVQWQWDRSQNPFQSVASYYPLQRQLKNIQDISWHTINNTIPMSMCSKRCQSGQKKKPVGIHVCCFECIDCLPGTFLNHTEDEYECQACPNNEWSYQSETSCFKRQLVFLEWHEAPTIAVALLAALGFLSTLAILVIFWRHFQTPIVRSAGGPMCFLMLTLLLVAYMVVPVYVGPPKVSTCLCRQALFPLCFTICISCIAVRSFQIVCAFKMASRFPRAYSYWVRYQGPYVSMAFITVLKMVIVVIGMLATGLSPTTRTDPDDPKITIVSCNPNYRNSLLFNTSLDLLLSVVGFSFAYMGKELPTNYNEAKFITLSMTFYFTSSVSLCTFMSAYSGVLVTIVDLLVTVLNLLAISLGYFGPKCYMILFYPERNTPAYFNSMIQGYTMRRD
# T1 sequence (Q7RTX0 21-852): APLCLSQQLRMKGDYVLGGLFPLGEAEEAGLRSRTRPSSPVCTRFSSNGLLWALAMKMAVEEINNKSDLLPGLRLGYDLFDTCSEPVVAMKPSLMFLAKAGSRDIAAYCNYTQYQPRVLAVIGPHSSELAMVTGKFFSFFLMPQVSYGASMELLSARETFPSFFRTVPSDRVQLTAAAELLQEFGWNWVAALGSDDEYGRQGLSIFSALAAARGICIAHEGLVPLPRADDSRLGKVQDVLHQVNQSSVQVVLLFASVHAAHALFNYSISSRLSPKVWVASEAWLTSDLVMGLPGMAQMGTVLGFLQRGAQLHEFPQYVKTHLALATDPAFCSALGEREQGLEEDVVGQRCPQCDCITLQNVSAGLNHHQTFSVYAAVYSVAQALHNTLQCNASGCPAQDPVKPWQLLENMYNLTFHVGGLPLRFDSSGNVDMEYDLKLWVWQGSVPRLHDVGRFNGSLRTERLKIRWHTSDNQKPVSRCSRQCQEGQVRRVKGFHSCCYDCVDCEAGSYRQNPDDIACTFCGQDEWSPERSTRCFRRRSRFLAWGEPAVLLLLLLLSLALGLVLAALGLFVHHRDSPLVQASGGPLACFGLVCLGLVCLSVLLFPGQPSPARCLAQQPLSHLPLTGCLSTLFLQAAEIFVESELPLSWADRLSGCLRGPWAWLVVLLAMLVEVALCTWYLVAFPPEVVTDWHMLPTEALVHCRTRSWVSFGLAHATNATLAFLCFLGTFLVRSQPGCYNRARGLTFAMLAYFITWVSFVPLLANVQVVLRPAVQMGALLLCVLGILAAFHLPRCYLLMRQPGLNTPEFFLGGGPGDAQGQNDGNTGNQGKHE
# Protocol: Automated fluorescent imaging using FlexStation 3 (Molecular Devices) can be performed, for example, according to the following procedure.
# First, cells are suspended in a low glucose ([…]) DMEM medium from which hygromycin B has been removed, and each 70 to 80 thousands of cells are seeded on each well of a 96-well plate (Corning, CellBIND Surface).
# Then, after cultured at 37° C. for 24 hours, a medium is removed and replaced with a suitable amount of a HEPES (2-[4-(2-hydroxyethyl)-1-piperazinyl]ethanesulfonic acid) buffer, and a HEPES buffer containing a fluorescent calcium indicator (Fluo-4 AM attached to Molecular Devices, FLIPR Ca 4 Assay Kit) is further added. In order to facilitate transfer into cells, a fat-soluble acetoxymethyl group has been introduced into the fluorescent indicator Fluo-4 (excitation wavelength: 495 nm, fluorescent wavelength: 518 nm), and when it is added to a medium, it is easily taken into cells, and is hydrolyzed with an esterase in cells. Hydrolyzed Fluo-4 becomes difficult to be permeated through a cell membrane, and is diffused into cells to form a complex with calcium, emitting intense fluorescence. In a 96-well plate for fluorescent observation, there are a plastic bottom and a film bottom. Since a plate of the plastic bottom is satisfactory in adherability and growth of cells, it is used at a simultaneous assay using a multiplate reader for observing an entire well. However, since a plate of this plastic bottom is bad in transmission property of a UV wavelength, and inhibits transmission of excited light of Fura-2, Fluo-4 is used.
# Then, after incubated at 27 to 37° C. for 30 to 60 minutes, by adding thereto a sweet taste substance at a particular concentration or a solution of a sweet taste substance and a substance to be tested, taste stimulation is performed at 27 to 37° C.
# A physiological response of the cultured cell strain (A) to sucrose stimulation was analyzed by automated fluorescent imaging.
# The cultured cell strain (A) prepared in Example 4 was trypsinized, and suspended in the DMEM medium, a cell density was measured, and each about 80 thousand cells were seeded on each well of a 96-well plate (Corning, CellBIND Surface).
# After cultured at 37° C. for 24 hours, the medium was removed and replaced with 50 μl of a HEPES buffer, and 50 μl of a HEPES buffer containing a fluorescent calcium indicator (Fluo-4 AM attached to Molecular Devices, FLIPR Ca 4 Assay Kit) was further added. Then, this was incubated at 27° C. for 45 minutes to prepare cells to be subjected to automated fluorescent imaging.
# Then, to the cells was added a HEPES buffer containing sucrose, so that a final concentration of sucrose became a concentration described in Table 1, and sucrose stimulation was performed at 27° C.
# The vertical axis of FIG. 15 is a maximum of change (AF) in a fluorescent intensity between immediately after stimulation and 100 seconds after stimulation, that is, a response intensity of cells, and the horizontal axis indicates a sucrose concentration (mM) expressed by logarithm.
# A physiological response of the cultured cell strain (A) to D-phenylalanine stimulation was analyzed by automated fluorescent imaging.
# [2] = molecular target: T1, human sweet taste receptor (hT1R2+hT1R3); experiment: as above; type: cell-based; parameters: The sweet taste receptor subunits T1R2 and T1R3 include an entire part of each subunit; remark: listed apart in the source
# [3] = molecular target: T1, human sweet taste receptor (hT1R2+hT1R3); experiment: Fluorescent microscope calcium imaging (Fura-2 AM) of cultured cell strains (A) to (C); settings: cultured cell strain (A); Sucrose in a range of 20 mM to 1 M; FIG. 13
# Protocol: Fluorescent calcium imaging using a fluorescent microscope can be performed according to the following procedure.
# First, cells are suspended in a low glucose (1,000 mg/ml) DMEM medium, from which hygromycin B has been removed, and each 40 to 80 thousands cells are seeded on each well of a 96-well plate (Greiner, Lumox).
# Then, after cultured at 37° C. for 24 to 48 hours, a medium is removed and is replaced with a suitable amount of a HEPES buffer, and a HEPES buffer containing a fluorescent calcium indicator (Fura-2 AM) is further added.
# After incubated at 27 to 37° C. for 30 to 60 minutes, an extracellular fluorescent indicator is removed, and this is finally replaced with a suitable amount of a HEPES buffer, and is allowed to stand at room temperature for 10 to 20 minutes. By adding thereto a sweet taste substance at a particular concentration or a solution of a sweet taste substance and a substance to be tested, taste stimulation is performed at room temperature. In the fluorescent indicator Fura-2 (excitation wavelength: 340 nm/380 nm, fluorescent wavelength: 510 nm), a fluorescent intensity of excitation at 340 nm is increased, and a fluorescent intensity of excitation at 380 nm is reduced, when a calcium ion concentration is increased.
# Cells loaded with Fura-2 AM were excited at 340 nm and 380 nm, and a fluorescent image observed at 510 nm was taken using a fluorescent microscope and a CCD camera. While the image was taken, Aspartame at a final concentration of 10 mM was administered to cells and, thereafter, the image was continuously taken. From the field of the taken image, 100 cells were randomly selected, and the response cell number was counted.
# Cells loaded with Fura-2 AM were excited at 340 nm and 380 nm, and a fluorescent image observed at 510 nm was taken using a fluorescent microscope and a CCD camera. While the image was taken, Aspartame at each final concentration of 0.1 mM, 0.5 mM, 1 mM, 2 mM and 5 mM was administered to cells and then the image was continuously taken.
# Cells loaded with Fura-2 AM were excited at 340 nm and 380 nm, and a fluorescent image observed at 510 nm was taken by using a fluorescent microscope and a CCD camera. While the image was taken, Sucrose at each final concentration of 20 mM, 50 mM, 100 mM, 200 mM, 500 mM and 1 M was administered to cells and then the image was continuously taken.
# Cells loaded with Fura-2 AM were excited at 340 nm and 380 nm, and a fluorescent image observed at 510 nm was taken by using a fluorescent microscope and a CCD camera. While the image was taken, sucrose at final concentration of 500 mM was administered to cells and then the image was continuously taken.
structure (smiles),measurement,setting,value
"COc1ccc(CCC(=O)c2c(O)cc(O[C@@H]3O[C@H](CO)[C@@H](O)[C@H](O)[C@H]3O[C@@H]3O[C@@H](C)[C@H](O)[C@@H](O)[C@H]3O)cc2O)cc1O [NHDC, neohesperidin dihydrochalcone]",Change amount of fluorescent intensity (ΔF),[1]; NHDC 0.003 mM,5.8
same,Change amount of fluorescent intensity (ΔF),[1]; NHDC 0.01 mM,11.2
same,Change amount of fluorescent intensity (ΔF),[2]; NHDC 0.03 mM,9.6
same,Change amount of fluorescent intensity (ΔF),[2]; NHDC 0.1 mM,20.9
same,Change amount of fluorescent intensity (ΔF),[2]; NHDC 0.3 mM,26.7
same,Change amount of fluorescent intensity (ΔF),[2]; NHDC 1 mM,41.8
same,Change amount of fluorescent intensity (ΔF),[2]; NHDC 3 mM,66.8
same,Change amount of fluorescent intensity (ΔF),[2]; NHDC 10 mM,78.6
O=C1NS(=O)(=O)c2ccccc21 [saccharin],Change amount of fluorescent intensity (ΔF),"[1]; saccharin 0.04 mM, Average ± S.E., n = 2",4.0 ± 0.8
same,Change amount of fluorescent intensity (ΔF),"[1]; saccharin 0.08 mM, Average ± S.E., n = 2",8.0 ± 0.6
same,Change amount of fluorescent intensity (ΔF),"[1]; saccharin 0.16 mM, Average ± S.E., n = 2",11.1 ± 1.3
same,Change amount of fluorescent intensity (ΔF),"[1]; saccharin 0.31 mM, Average ± S.E., n = 2",18.7 ± 2.4
same,Change amount of fluorescent intensity (ΔF),"[1]; saccharin 0.63 mM, Average ± S.E., n = 2",26.1 ± 4.0
same,Change amount of fluorescent intensity (ΔF),"[1]; saccharin 1.25 mM, Average ± S.E., n = 2",25.7 ± 1.1
same,Change amount of fluorescent intensity (ΔF),"[1]; saccharin 2.50 mM, Average ± S.E., n = 2",25.6 ± 0.2
same,Change amount of fluorescent intensity (ΔF),"[1]; saccharin 5 mM, Average ± S.E., n = 2",21.8 ± 1.2
"OC[C@H]1O[C@@](CO)(O[C@H]2O[C@H](CO)[C@@H](O)[C@H](O)[C@H]2O)[C@@H](O)[C@@H]1O [Sucrose, sucrose]",Change amount of fluorescent intensity (ΔF),"[1]; sucrose 3.1 mM, Average ± S.E., n = 6",10.8 ± 2.0
same,Change amount of fluorescent intensity (ΔF),"[1]; sucrose 6.3 mM, Average ± S.E., n = 6",13.8 ± 2.9
same,Change amount of fluorescent intensity (ΔF),"[1]; sucrose 12.5 mM, Average ± S.E., n = 6",14.9 ± 2.7
same,Change amount of fluorescent intensity (ΔF),"[1]; sucrose 25 mM, Average ± S.E., n = 6",17.0 ± 2.6
same,Change amount of fluorescent intensity (ΔF),"[1]; sucrose 50 mM, Average ± S.E., n = 6",29.2 ± 2.3
same,Change amount of fluorescent intensity (ΔF),"[1]; sucrose 100 mM, Average ± S.E., n = 6",40.4 ± 2.5
same,Change amount of fluorescent intensity (ΔF),"[1]; sucrose 200 mM, Average ± S.E., n = 6",35.4 ± 3.2
same,sweet taste response (fluorescent images),[3],concentration-dependent sweet taste response was observed
N[C@H](Cc1ccccc1)C(=O)O [D-phenylalanine],Change amount of fluorescent intensity (ΔF),"[1]; D-phenylalanine 1.5 mM, Average ± S.E., n = 2",4.0 ± 0.8
same,Change amount of fluorescent intensity (ΔF),"[1]; D-phenylalanine 2.2 mM, Average ± S.E., n = 2",4.8 ± 0.6
same,Change amount of fluorescent intensity (ΔF),"[1]; D-phenylalanine 3.3 mM, Average ± S.E., n = 2",4.5 ± 0.6
same,Change amount of fluorescent intensity (ΔF),"[1]; D-phenylalanine 4.9 mM, Average ± S.E., n = 2",5.4 ± 0.3
same,Change amount of fluorescent intensity (ΔF),"[1]; D-phenylalanine 7.4 mM, Average ± S.E., n = 2",8.1 ± 0.7
same,Change amount of fluorescent intensity (ΔF),"[1]; D-phenylalanine 11.1 mM, Average ± S.E., n = 2",12.1 ± 0.2
same,Change amount of fluorescent intensity (ΔF),"[1]; D-phenylalanine 16.7 mM, Average ± S.E., n = 2",18.2 ± 0.9
same,Change amount of fluorescent intensity (ΔF),"[1]; D-phenylalanine 25 mM, Average ± S.E., n = 2",25.2 ± 1.2
